Measurements reported in ChEMBL document CHEMBL6092169, “Development of selective heterocyclic PDE4 inhibitors for treatment of psoriasis” (Eur J Med Chem, 2024).

Experiments:
[1] = biological target: T1, 3',5'-cyclic-AMP phosphodiesterase 4D (Homo sapiens, UniProt Q08499); assay: Inhibition of full-length PDE4D2 (unknown origin) using FAM-cAMP as substrate at 1 uM preincubated with compound for 15 mins followed by substrate addition and measured after 30 mins by fluorescence polarization based IMAP assay relative to control; conditions: time 45.0 min
T1 sequence (Q08499 whole entry): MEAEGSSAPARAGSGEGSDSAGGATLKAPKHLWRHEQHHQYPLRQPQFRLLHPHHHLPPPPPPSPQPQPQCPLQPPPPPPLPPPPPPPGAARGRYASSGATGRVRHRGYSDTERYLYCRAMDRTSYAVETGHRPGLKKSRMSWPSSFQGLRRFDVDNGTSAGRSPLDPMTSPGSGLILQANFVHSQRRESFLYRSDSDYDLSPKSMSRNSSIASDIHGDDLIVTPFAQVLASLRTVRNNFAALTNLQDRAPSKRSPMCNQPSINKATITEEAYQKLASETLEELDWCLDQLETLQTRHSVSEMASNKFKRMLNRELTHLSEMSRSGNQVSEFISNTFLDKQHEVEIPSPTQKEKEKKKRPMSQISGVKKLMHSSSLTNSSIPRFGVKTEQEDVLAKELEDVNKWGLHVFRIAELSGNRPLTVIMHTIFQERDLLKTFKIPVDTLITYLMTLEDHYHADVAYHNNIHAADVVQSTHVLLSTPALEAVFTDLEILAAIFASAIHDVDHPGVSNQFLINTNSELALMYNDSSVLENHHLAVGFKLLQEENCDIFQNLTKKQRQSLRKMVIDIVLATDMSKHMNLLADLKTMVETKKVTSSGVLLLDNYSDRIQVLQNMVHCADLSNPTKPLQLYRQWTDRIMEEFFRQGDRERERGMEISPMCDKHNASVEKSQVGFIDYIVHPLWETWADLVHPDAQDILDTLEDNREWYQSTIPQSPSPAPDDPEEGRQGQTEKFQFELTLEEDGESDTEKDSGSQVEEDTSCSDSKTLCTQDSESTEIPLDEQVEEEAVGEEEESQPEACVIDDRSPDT

RAW264.7 [2] = assay: Anti-inflammatory activity in mouse RAW264.7 cells assessed as inhibition of LPS-induced TNF-alpha production at 10 uM incubated for 24 hrs by ELISA relative to control; assay type: functional; parameters: scale not given: the % may be the effect or the level left
[3] = Cytotoxicity against human HaCaT cells assessed as reduction in cell viability incubated for 24 hrs by CCK-8 assay; assay type: toxicity, cell-based
[4] = biological target: T1, 3',5'-cyclic-AMP phosphodiesterase 4D; assay: Inhibition of full-length PDE4D2 (unknown origin) using FAM-cAMP as substrate preincubated with compound for 15 mins followed by substrate addition and measured after 30 mins by fluorescence polarization based IMAP assay
[5] = Cytotoxicity against mouse RAW264.7 cells assessed as reduction in cell viability incubated for 24 hrs by CCK-8 assay; assay type: toxicity, cell-based
RAW264.7 [6] = assay: Anti-inflammatory activity in mouse RAW264.7 cells assessed as inhibition of LPS-induced TNF-alpha production incubated for 24 hrs by ELISA; assay type: functional, cell-based; conditions: RAW264.7, 24 h
RAW264.7 [7] = assay: Anti-inflammatory activity in mouse RAW264.7 cells assessed as inhibition of LPS-induced IL-6 production incubated for 24 hrs by ELISA; assay type: functional, cell-based; conditions: RAW264.7, 24 h
HaCaT = assay: Anti-inflammatory activity in human HaCaT cells assessed as inhibition of M5-induced TNF-alpha production incubated for 24 hrs by ELISA; assay type: functional, cell-based

Compound	inhibition [1] [%]	Activity (RAW264.7 [2]) [%]	other results
Cc1ccc(-c2nc(C(=O)Nc3ccncc3)c[nH]2)cc1C	3.4	11.94	
O=C(NCc1ccccc1)c1c[nH]c(-c2ccc(OC(F)F)c(OCC3CC3)c2)n1	91.1	8.88	
COc1cc(-c2nc(C(=O)Nc3ccc4ncsc4c3)c[nH]2)cc(OC)c1OC(F)F	8.4		
COc1cc(-c2nc(C(=O)NCc3c(F)cccc3F)c[nH]2)cc(OC)c1OC(F)F	33.3		
O=C(NCc1ncccn1)c1c[nH]c(-c2ccc(OC(F)F)c(OCC3CC3)c2)n1			CC50 at 24 h [3]: > 50 µM; IC50 [4]: 0.0005 µM; CC50 at 24 h [5]: > 50 µM; IC50 (RAW264.7 [6]): 27.3 µM; IC50 (RAW264.7 [7]): 38.4 µM; IC50 (HaCaT): 19.3 µM
COc1cc(-c2nc(C(=O)NCc3ncccn3)c[nH]2)cc(OC)c1OC(F)F	0.8		
O=C(NCc1ncccn1)c1coc(-c2ccc(OC(F)F)c(OCC3CC3)c2)n1		4.98	IC50 [4]: 0.0182 µM
O=C(NCc1ccc(F)cc1F)c1c[nH]c(-c2ccc(OC(F)F)c(OC(F)F)c2)n1	88.4	14.32	
O=C(NCc1ncccn1)c1c[nH]c(-c2cc(OCC3CC3)c(OC(F)F)c(OCC3CC3)c2)n1	1.8		
O=C(NCc1ncccn1)c1c[nH]c(-c2ccc(OC(F)F)c(OC(F)F)c2)n1	96.3	4.06	
COC(=O)c1coc(-c2ccc(OC(F)F)c(OCC3CC3)c2)n1	70.1	26.96	
Cn1ccc(NC(=O)c2c[nH]c(-c3ccc(OC(F)F)c(OCC4CC4)c3)n2)n1	58.8	18.46	
O=C(NCc1ccc(F)c(F)c1)c1c[nH]c(-c2ccc(OC(F)F)c(OCC3CC3)c2)n1		12.03	IC50 [4]: 0.0149 µM
O=C(O)c1coc(-c2ccc(OC(F)F)c(OCC3CC3)c2)n1	46.2	10.47	
O=C(NCc1c(F)cccc1F)c1coc(-c2ccc(OC(F)F)c(OCC3CC3)c2)n1		9.32	IC50 [4]: 0.0273 µM
COc1ccc(CNC(=O)c2c[nH]c(-c3ccc(OC(F)F)c(OCC4CC4)c3)n2)cn1	94.1	7.74	
O=C(NCc1ccc(F)cc1F)c1c[nH]c(-c2ccc(OC(F)F)c(OCC3CC3)c2)n1		5.16	IC50 [4]: 0.00474 µM
O=C(Nc1nccs1)c1coc(-c2ccc(OC(F)F)c(OCC3CC3)c2)n1	57	11.17	
O=C(Nc1nccs1)c1c[nH]c(-c2ccc(OC(F)F)c(OCC3CC3)c2)n1	74.3		IC50 (RAW264.7 [6]): 59.9 µM
